Measurements from US20060286173A1, “Drug delivery system for sub-tenon s capsule adminstration of fine grains” (priority 2003, published 2006).

Test: In vitro drug release test
Assay type: physicochemical
Details: 0.1 M phosphate buffer pH 7.4, 37° C.
Method: This mixture was placed in a glass vessel, and thereto was added 98.5 mL of 0.1 M phosphate buffer (pH 7.4). The entire mixture was shaken in a water bath at 37° C., and the in vitro drug release test was started. […] As a control, the powder of each drug in the same amount was charged into the chamber described above, and the release test was conducted in the same manner.
2) On day 1, 2, 6, 14, 29 after starting the test, the buffer was sampled in its entirety, which was analyzed using high performance liquid chromatography. Also, after the sampling, 98.5 mL of 0.1 M phosphate buffer (pH 7.4) was freshly added, and the release test was continued.

In vitro drug release rate (%) (Day 1): 57.6%
In vitro drug release rate (%) (Day 2): 73.4%
SMILES: CC1(C)O[C@@H]2C[C@H]3[C@@H]4C[C@H](F)C5=CC(=O)C=C[C@]5(C)[C@@]4(F)[C@@H](O)C[C@]3(C)[C@]2(C(=O)CO)O1 [Fluocinolone acetonide powder, fluocinolone acetonide]
